Reference: ChEMBL document CHEMBL1201862, “PubChem BioAssay data set” (2004)
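Five concentrations, 48 hours, 96-well plates. The concentration for 50% growth inhibition is given as GI50.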 Active and inactive are the calls of the source. Cut-off read from the data, not from the text of the source: active = GI50 up to about 1.1 µM and inactive = higher.

Columns and labels:
Experiment in all cases: inhibition of tumour cell growth, NCI panel, 48 h
HOP-18 = test system: HOP-18
DMS-114 = test system: DMS-114
SNB-78 = test system: SNB-78
KM-20L2 = test system: KM-20L2
DLD-1 = test system: DLD-1
DMS-273 = test system: DMS-273
M19-MEL = test system: M19-MEL
XF498 = test system: XF498
RXF 631 = test system: RXF 631

Compound: O=c1[nH]c(=O)n([C@H]2C[C@@H](CO)[C@@H](O)C2)cc1I
- GI50 (HOP-18): > 100 µM (inactive)
- GI50 (DMS-114): > 100 µM (inactive)
- GI50 (SNB-78): > 100 µM (inactive)
- GI50 (KM-20L2): > 100 µM (inactive)
- GI50 (DLD-1): > 100 µM (inactive)
- GI50 (DMS-273): > 100 µM (inactive)
- GI50 (M19-MEL): > 100 µM (inactive)

Compound: Cc1ccc(Nc2nc3c(s2)C(=O)c2ccccc2C3=O)c(C)c1
- GI50 (HOP-18): 4.57 µM (inactive)
- GI50 (XF498): 17.3 µM (inactive)
- GI50 (DMS-114): 8.59 µM (inactive)
- GI50 (SNB-78): 15.2 µM (inactive)
- GI50 (KM-20L2): 37.3 µM (inactive)
- GI50 (DLD-1): 15.1 µM (inactive)
- GI50 (DMS-273): 19.6 µM (inactive)
- GI50 (M19-MEL): 2.37 µM (inactive)

Compound: O=C(O)CCC(=O)Oc1ccc(O)c2c1CCCC2=O
- GI50 (HOP-18): > 100 µM (inactive)
- GI50 (XF498): 0.316 µM (active)
- GI50 (DMS-114): > 100 µM (inactive)
- GI50 (SNB-78): > 100 µM (inactive)
- GI50 (KM-20L2): > 100 µM (inactive)
- GI50 (DLD-1): > 100 µM (inactive)
- GI50 (DMS-273): > 100 µM (inactive)
- GI50 (M19-MEL): > 100 µM (inactive)

Compound: CC1(C)OCC([C@H]2CC23SCCCS3)O1 (some centres not stated)
- GI50 (HOP-18): > 100 µM (inactive)
- GI50 (XF498): > 100 µM (inactive)
- GI50 (DMS-114): > 100 µM (inactive)
- GI50 (SNB-78): > 100 µM (inactive)
- GI50 (KM-20L2): > 100 µM (inactive)
- GI50 (DLD-1): > 100 µM (inactive)
- GI50 (DMS-273): > 100 µM (inactive)

Compound: COc1ccc2nc3ccccc3c(NCCCCCCN(C)CCCl)c2c1
- GI50 (XF498): 0.2 µM (active)
- GI50 (DMS-114): 0.166 µM (active)
- GI50 (SNB-78): 0.33 µM (active)
- GI50 (KM-20L2): 0.172 µM (active)
- GI50 (DLD-1): 0.164 µM (active)
- GI50 (DMS-273): 0.0488 µM (active)
- GI50 (M19-MEL): 0.308 µM (active)

Compound: CCOc1ccc(/C(C=O)=C(\Cl)c2ccc(OC)cc2)cc1
- GI50 (HOP-18): 42.3 µM (inactive)
- GI50 (XF498): > 100 µM (inactive)
- GI50 (DMS-114): 40.5 µM (inactive)
- GI50 (SNB-78): > 100 µM (inactive)
- GI50 (KM-20L2): > 100 µM (inactive)
- GI50 (DLD-1): > 100 µM (inactive)
- GI50 (DMS-273): > 100 µM (inactive)
- GI50 (M19-MEL): > 100 µM (inactive)

Compound: COc1ccc2c(c1)Oc1cc(O)ccc1[C@H]2c1ccccc1C(=O)NC(C)c1ccccc1 (some centres not stated)
- GI50 (DMS-114): 11.5 µM (inactive)
- GI50 (SNB-78): 16.6 µM (inactive)
- GI50 (KM-20L2): 19.1 µM (inactive)
- GI50 (DLD-1): 18.2 µM (inactive)
- GI50 (DMS-273): 14.5 µM (inactive)
- GI50 (M19-MEL): 15.7 µM (inactive)

Compound: CC[C@@H]1OC2(C)CC(S(=O)(=O)c3ccccc3O)CC1O2 (some centres not stated)
- GI50 (HOP-18): > 100 µM (inactive)
- GI50 (KM-20L2): > 100 µM (inactive)
- GI50 (DLD-1): > 100 µM (inactive)
- GI50 (RXF 631): > 100 µM (inactive)
- GI50 (DMS-273): > 100 µM (inactive)
- GI50 (M19-MEL): > 100 µM (inactive)

Compound: CCCCNCC(=O)O[C@]1(CC)C(=O)OCc2c1cc1n(c2=O)Cc2cc3ccccc3nc2-1
- GI50 (HOP-18): 0.44 µM (active)
- GI50 (XF498): 0.305 µM (active)
- GI50 (DMS-114): 0.121 µM (active)
- GI50 (SNB-78): 2.43 µM (inactive)
- GI50 (KM-20L2): 1.24 µM (inactive)
- GI50 (DLD-1): 3.3 µM (inactive)
- GI50 (RXF 631): 1.7 µM (inactive)
- GI50 (DMS-273): < 0.01 µM (active)
- GI50 (M19-MEL): 0.63 µM (active)

Compound: Nn1c(-c2cccc(Cl)c2)nc2ccccc2c1=O
- GI50 (HOP-18): 68.5 µM (inactive)
- GI50 (XF498): 23.5 µM (inactive)
- GI50 (DMS-114): > 100 µM (inactive)
- GI50 (SNB-78): > 100 µM (inactive)
- GI50 (KM-20L2): > 100 µM (inactive)
- GI50 (DLD-1): > 100 µM (inactive)
- GI50 (RXF 631): > 100 µM (inactive)
- GI50 (DMS-273): > 100 µM (inactive)

Compound: CC1(C)CC(=O)C(C(=O)Nc2cccs2)=C(O)C1
- GI50 (HOP-18): 21.6 µM (inactive)
- GI50 (XF498): 43 µM (inactive)
- GI50 (SNB-78): 36.1 µM (inactive)
- GI50 (KM-20L2): 38.2 µM (inactive)
- GI50 (DLD-1): 39.5 µM (inactive)
- GI50 (RXF 631): 36.5 µM (inactive)
- GI50 (DMS-273): 25.2 µM (inactive)
- GI50 (M19-MEL): 41.2 µM (inactive)

Compound: O=C1NC(Cc2ccc(O)cc2)C(=O)N2CCCC12 (configuration not stated)
- GI50 (HOP-18): > 100 µM (inactive)
- GI50 (DMS-114): > 100 µM (inactive)
- GI50 (SNB-78): > 100 µM (inactive)
- GI50 (KM-20L2): > 100 µM (inactive)
- GI50 (DLD-1): > 100 µM (inactive)
- GI50 (RXF 631): > 100 µM (inactive)
- GI50 (DMS-273): > 100 µM (inactive)
- GI50 (M19-MEL): > 100 µM (inactive)

Compound: CCN(CC)CC[n+]1ccc2c(C)c3[nH]c4ccc(O)cc4c3c(C)c2c1
- GI50 (HOP-18): 4.23 µM (inactive)
- GI50 (DMS-114): 0.767 µM (active)
- GI50 (SNB-78): 3.5 µM (inactive)
- GI50 (KM-20L2): 8.47 µM (inactive)
- GI50 (DLD-1): 11.6 µM (inactive)
- GI50 (DMS-273): 2.92 µM (inactive)
- GI50 (M19-MEL): 1.21 µM (inactive)
